Results: PMC6368574, “Probing the Inhibition of Microtubule Affinity Regulating Kinase 4 by N-Substituted Acridones” (Scientific Reports, 2019)
Where two headings read alike, the source gives them in different places.

How the values were obtained:
[1] = biological target: T1, recombinant MARK4 (Homo sapiens, UniProt Q96L34); assay: ATPase enzyme inhibition assay (Malachite Green); type: biochemical
T1 construct: made in house; host or cells: bacterial cells (Luria-Bertani broth, IPTG induction)
T1 sequence (Q96L34 1-752): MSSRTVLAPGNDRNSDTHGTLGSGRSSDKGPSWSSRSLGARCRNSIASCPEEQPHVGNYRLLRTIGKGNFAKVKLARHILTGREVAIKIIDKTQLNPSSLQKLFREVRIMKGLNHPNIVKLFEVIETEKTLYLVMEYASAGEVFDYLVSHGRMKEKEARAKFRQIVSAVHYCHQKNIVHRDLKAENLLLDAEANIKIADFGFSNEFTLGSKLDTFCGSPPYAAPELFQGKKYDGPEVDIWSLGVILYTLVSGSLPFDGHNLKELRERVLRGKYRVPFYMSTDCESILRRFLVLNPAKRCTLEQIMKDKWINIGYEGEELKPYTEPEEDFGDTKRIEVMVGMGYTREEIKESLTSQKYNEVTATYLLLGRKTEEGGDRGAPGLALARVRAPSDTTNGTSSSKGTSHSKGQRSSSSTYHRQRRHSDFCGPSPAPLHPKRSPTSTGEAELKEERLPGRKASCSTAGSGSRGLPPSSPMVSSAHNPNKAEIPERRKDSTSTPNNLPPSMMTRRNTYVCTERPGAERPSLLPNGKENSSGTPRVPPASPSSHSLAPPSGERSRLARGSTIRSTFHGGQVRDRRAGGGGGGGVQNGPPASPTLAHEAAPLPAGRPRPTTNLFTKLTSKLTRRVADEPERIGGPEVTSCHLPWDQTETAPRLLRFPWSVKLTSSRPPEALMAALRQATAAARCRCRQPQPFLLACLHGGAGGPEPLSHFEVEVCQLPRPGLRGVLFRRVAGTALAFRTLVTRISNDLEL
Description: To evaluate the inhibition activity of synthesized acridone derivatives against recombinant MARK4, ATPase enzyme inhibition assay was performed (Table S3). […] Our studies were initiated by replacing the ester group of 5 with sterically and electronically diverse amines affording the corresponding amides 7a–j, in order to establish favorable interactions with residues Ala135, Val70, Asp196 and/or Glu182. […] In this case, the docking studies indicate a better fit of 7h compared with 7g in the active site of MARK4 with a binding energy of −9.5 kcal/mol and a stronger predicted hydrogen bond with Ala135 (3.06 Å for 7h, 3.19 Å for 7g).
Enzyme activity of MARK4 was evaluated with the help of standard Malachite Green (Biomol Green reagent, Enzo Life Sciences) microtitre-plate assay as described earlier. Estimated amount of MARK4 (200 ng) and 20 µM ATP as a substrate were incubated for 10–15 min at 25 °C with increasing concentrations (0–20 µM) of synthesized acridone derivatives, in 20 mM Tris buffer, pH 8.0. Reaction was terminated by the adding 100 µl of Biomol Green reagent and absorbance of final reaction products was recorded at 620 nm in a multiplate ELSIA reader (BioRad). In order to quantify the hydrolyzed phosphate, inorganic phosphate standard curve were prepared from the phosphate standard solutions as supplied by the manufacturer (Biomol Green reagent, Enzo Life Sciences). All data points represent triplicate measurements from at least three independent experiments.

[2] = tested on: HEK293 cells; assay: MTT cell viability assay, HEK293; type: cell-based; settings: Homo sapiens, Table S2
Description: Initially, all synthesized acridone derivatives were evaluated for their cytotoxicity potential on MCF-7, HepG2 and HEK293 cell lines by MTT assay. These synthesized acridone derivatives were screened in the concentration range of 0–200 µM, for 24 and 48 h. […] It was also interesting that in the studied […] concentration range these compounds don’t show considerable cytotoxicity towards HEK293 cell lines. […] Thus, compounds 5, 7b, 7d, 7f and 7h were taken for further cell based studies such as apoptosis and reactive oxygen species (ROS) production.
To study the effect of synthesized acridone derivatives on cell viability and proliferation, a standard MTT method was carried out. Cells were plated (8000–9000/well) in a 96-well plate and incubated overnight. On the next day, cells were treated with increasing concentrations (0.1–80 μM) of synthesized acridone derivatives in a final volume of 200 µl for 48 h at 37 °C in a humidified chamber. At the end of treatment time point, 20 µl of MTT solution (from 5 mg/ml stock solution in phosphate buffer saline, pH 7.4) was added to each well and incubated further for 4–5 h at 37 °C in the CO2 incubator. After stipulated time the supernatant was aspirated and the colored formazan crystal produced as a result of MTT reduction was dissolved in 100 µl of DMSO. The absorbance (A) of colored product was then measured at 570 nm on a multiplate ELISA reader (BioRad). The percentage of viable cells was calculated and used to estimate the IC50 (50% inhibitory concentration) values for each acridone derivative. For cell proliferation studies paclitaxel has been taken as positive control.

[3] = tested on: phosphorylation of tau protein in SH-SY5Y cells; assay: Tau-phosphorylation assay by flow cytometry; type: cell-based, human; settings: IC50 dose, 24 h
From the text: To see the effect of most potential lead molecules (compound 7b, 7d and 7f) on the substrate protein (tau protein) of MARK4 enzyme inhibition activity studies are extended to a cell-based tau-phosphorylation assay. Cells were allowed to grow in the presence of IC50 dose of compound 7b, 7d and 7f for 24 hrs. Following the treatment, the phosphorylation of tau has been assessed with the help of flow cytometry.
To study the effect of selected lead molecules on the phosphorylation of tau protein (a substrate of MARK4) the SH-SY5Y cells were treated with IC50 dose of compound 7b, 7d and 7 f for 24 h and subjected to FACS based analysis as per our previously published protocols[17],[50].

[4] = ATPase inhibition, 20 µM ATP, read-out: IC50 against MARK4
[5] = Table 1, from enzyme inhibition, read-out: IC50, (µM), MARK4

Row | IC50 [1, 4] [µM] | IC50 [1, 5] [µM] | SMILES | IC50 [2] [µM] | phosphorylation level of tau protein [3]
1 | 14.1 ± 1.02 |  | COC(=O)Cn1c2ccccc2c(=O)c2cc(C)ccc21 [Compound 5, Methyl 2-(2-methyl-9-oxoacridin-10(9H)-yl)acetate] | > 200 | 
2 |  | 1.8 ± 0.04 | Cc1ccc2c(c1)c(=O)c1ccccc1n2CC(=O)NCc1ccccc1 [Compound 7b, N-benzyl-2-(2-methyl-9-oxoacridin-10(9H)-yl)acetamide] | > 200 | decreases the phosphorylation level of tau protein
3 |  | 2.2 ± 0.05 | COc1ccc(CNC(=O)Cn2c3ccccc3c(=O)c3cc(C)ccc32)cc1 [Compound 7d, N-(4-methoxybenzyl)-2-(2-methyl-9-oxoacridin-10(9H)-yl)acetamide] | > 200 | decreases the phosphorylation level of tau protein
4 |  | 4.5 ± 0.52 | Cc1ccc(NC(=O)Cn2c3ccccc3c(=O)c3cc(C)ccc32)cc1 [Compound 7f, 2-(2-Methyl-9-oxoacridin-10(9H)-yl)-N-(p-tolyl)acetamide] | > 200 | decreases the phosphorylation level of tau protein
5 | 12.1 ± 1.1 |  | COc1ccccc1NC(=O)Cn1c2ccccc2c(=O)c2cc(C)ccc21 [Compound 7h, N-(2-methoxyphenyl)-2-(2-methyl-9-oxoacridin-10(9H)-yl)acetamide] | > 200 | 
